From ChEMBL document CHEMBL2057203, “Synthesis and evaluation of novel F-18 labeled 4-aminoquinazoline derivatives: potential PET imaging agents for tumor detection” (Bioorg Med Chem Lett, 2012)

What was measured:
[1] = Chemical stability in PBS after 2 hrs by radio-HPLC analysis at room temperature; format: physicochemical; details: buffer
Blood [2] = assay: Biodistribution in S180 tumor-bearing mouse blood at 8 to 10 uCi, iv after 60 mins by gamma counting; format: ADME, organism-based; details: in vivo, 1 h
Nucleic Acid [3] = assay: Ratio of drug level in tumor to muscle in S180 tumor-bearing mouse at 8 to 10 uCi, iv at 5 mins by gamma counting; format: ADME, organism-based; details: in vivo
Nucleic Acid [4] = assay: Ratio of drug level in tumor to muscle in S180 tumor-bearing mouse at 8 to 10 uCi, iv at 30 mins by gamma counting; format: ADME, organism-based; details: in vivo, 0.5 h
Kidney [5] = assay: Biodistribution in S180 tumor-bearing mouse kidney at 8 to 10 uCi, iv after 30 mins by gamma counting; format: ADME, organism-based; details: in vivo, 0.5 h
Blood [6] = assay: Biodistribution in S180 tumor-bearing mouse blood at 8 to 10 uCi, iv after 5 mins by gamma counting; format: ADME, organism-based; details: in vivo
Stomach [7] = assay: Biodistribution in S180 tumor-bearing mouse stomach at 8 to 10 uCi, iv after 60 mins by gamma counting; format: ADME, organism-based; details: in vivo, 1 h
Muscle tissue [8] = assay: Biodistribution in S180 tumor-bearing mouse muscle at 8 to 10 uCi, iv after 120 mins by gamma counting; format: ADME, organism-based; details: in vivo, 2 h
Nucleic Acid [9] = assay: Ratio of drug level in tumor to brain in S180 tumor-bearing mouse at 8 to 10 uCi, iv at 30 mins by gamma counting; format: ADME, organism-based; details: in vivo, 0.5 h
Nucleic Acid [10] = assay: Ratio of drug level in tumor to blood in S180 tumor-bearing mouse at 8 to 10 uCi, iv at 120 mins by gamma counting; format: ADME, organism-based; details: tumour, 2 h
Stomach [11] = assay: Biodistribution in S180 tumor-bearing mouse stomach at 8 to 10 uCi, iv after 30 mins by gamma counting; format: ADME, organism-based; details: in vivo, 0.5 h
Nucleic Acid [12] = assay: Ratio of drug level in tumor to blood in S180 tumor-bearing mouse at 8 to 10 uCi, iv at 60 mins by gamma counting; format: ADME, organism-based; details: tumour, 1 h
Nucleic Acid [13] = assay: Ratio of drug level in tumor to brain in S180 tumor-bearing mouse at 8 to 10 uCi, iv at 5 mins by gamma counting; format: ADME, organism-based; details: in vivo
Mus musculus [14] = assay: Biodistribution in S180 cells xenografted in mouse tumor at 8 to 10 uCi, iv after 30 mins by gamma counting; format: ADME, organism-based, Neoplasm, CCRF S-180; details: in vivo, 0.5 h
Nucleic Acid [15] = assay: Ratio of drug level in tumor to blood in S180 tumor-bearing mouse at 8 to 10 uCi, iv at 30 mins by gamma counting; format: ADME, organism-based; details: tumour, 0.5 h
Blood [16] = assay: Biodistribution in S180 tumor-bearing mouse blood at 8 to 10 uCi, iv after 30 mins by gamma counting; format: ADME, organism-based; details: in vivo, 0.5 h
Spleen [17] = assay: Biodistribution in S180 tumor-bearing mouse spleen at 8 to 10 uCi, iv after 30 mins by gamma counting; format: ADME, organism-based; details: in vivo, 0.5 h
Nucleic Acid [18] = assay: Ratio of drug level in tumor to muscle in S180 tumor-bearing mouse at 8 to 10 uCi, iv at 60 mins by gamma counting; format: ADME, organism-based; details: in vivo, 1 h
[19] = Chemical stability in PBS after 2 hrs by radio-HPLC analysis at 60 degC; format: physicochemical; details: buffer
Liver [20] = assay: Biodistribution in S180 tumor-bearing mouse liver at 8 to 10 uCi, iv after 30 mins by gamma counting; format: ADME, organism-based; details: in vivo, 0.5 h
Mus musculus [21] = assay: Biodistribution in S180 cells xenografted in mouse tumor at 8 to 10 uCi, iv after 60 mins by gamma counting; format: ADME, organism-based, Neoplasm, CCRF S-180; details: in vivo, 1 h
Blood [22] = assay: Clearance in S180 tumor-bearing mouse blood at 8 to 10 uCi, iv at 120 mins; format: ADME, organism-based; details: in vivo, 2 h
Spleen [23] = assay: Biodistribution in S180 tumor-bearing mouse spleen at 8 to 10 uCi, iv after 5 mins by gamma counting; format: ADME, organism-based; details: in vivo
Heart [24] = assay: Biodistribution in S180 tumor-bearing mouse heart at 8 to 10 uCi, iv after 60 mins by gamma counting; format: ADME, organism-based; details: in vivo, 1 h
Plasma = assay: Metabolic stability in mouse plasma after 2 hrs by radio-HPLC analysis; format: ADME, cell-free
Muscle tissue [25] = assay: Biodistribution in S180 tumor-bearing mouse muscle at 8 to 10 uCi, iv after 30 mins by gamma counting; format: ADME, organism-based; details: in vivo, 0.5 h
Kidney [26] = assay: Biodistribution in S180 tumor-bearing mouse kidney at 8 to 10 uCi, iv after 120 mins by gamma counting; format: ADME, organism-based; details: in vivo, 2 h
Brain [27] = assay: Biodistribution in S180 tumor-bearing mouse brain at 8 to 10 uCi, iv after 5 mins by gamma counting; format: ADME, organism-based; details: in vivo
Liver [28] = assay: Biodistribution in S180 tumor-bearing mouse liver at 8 to 10 uCi, iv after 120 mins by gamma counting; format: ADME, organism-based; details: in vivo, 2 h
Nucleic Acid [29] = assay: Ratio of drug level in tumor to blood in S180 tumor-bearing mouse at 8 to 10 uCi, iv at 5 mins by gamma counting; format: ADME, organism-based; details: tumour
Heart [30] = assay: Biodistribution in S180 tumor-bearing mouse heart at 8 to 10 uCi, iv after 5 mins by gamma counting; format: ADME, organism-based; details: in vivo
Heart [31] = assay: Biodistribution in S180 tumor-bearing mouse heart at 8 to 10 uCi, iv after 30 mins by gamma counting; format: ADME, organism-based; details: in vivo, 0.5 h
Brain [32] = assay: Biodistribution in S180 tumor-bearing mouse brain at 8 to 10 uCi, iv after 30 mins by gamma counting; format: ADME, organism-based; details: in vivo, 0.5 h
Muscle tissue [33] = assay: Biodistribution in S180 tumor-bearing mouse muscle at 8 to 10 uCi, iv after 5 mins by gamma counting; format: ADME, organism-based; details: in vivo
Lung [34] = assay: Biodistribution in S180 tumor-bearing mouse lungs at 8 to 10 uCi, iv after 5 mins by gamma counting; format: ADME, organism-based; details: in vivo
Heart [35] = assay: Biodistribution in S180 tumor-bearing mouse heart at 8 to 10 uCi, iv after 120 mins by gamma counting; format: ADME, organism-based; details: in vivo, 2 h
Brain [36] = assay: Biodistribution in S180 tumor-bearing mouse brain at 8 to 10 uCi, iv after 120 mins by gamma counting; format: ADME, organism-based; details: in vivo, 2 h
Stomach [37] = assay: Biodistribution in S180 tumor-bearing mouse stomach at 8 to 10 uCi, iv after 5 mins by gamma counting; format: ADME, organism-based; details: in vivo
Kidney [38] = assay: Biodistribution in S180 tumor-bearing mouse kidneys at 8 to 10 uCi, iv after 5 mins by gamma counting; format: ADME, organism-based; details: in vivo
Spleen [39] = assay: Biodistribution in S180 tumor-bearing mouse spleen at 8 to 10 uCi, iv after 60 mins by gamma counting; format: ADME, organism-based; details: in vivo, 1 h
Nucleic Acid [40] = assay: Ratio of drug level in tumor to brain in S180 tumor-bearing mouse at 8 to 10 uCi, iv at 120 mins by gamma counting; format: ADME, organism-based; details: in vivo, 2 h
[41] = n-octanol-PBS partition coefficient, logP of the compound; format: physicochemical
Lung [42] = assay: Biodistribution in S180 tumor-bearing mouse lung at 8 to 10 uCi, iv after 30 mins by gamma counting; format: ADME, organism-based; details: in vivo, 0.5 h
Lung [43] = assay: Biodistribution in S180 tumor-bearing mouse lung at 8 to 10 uCi, iv after 120 mins by gamma counting; format: ADME, organism-based; details: in vivo, 2 h
Liver [44] = assay: Biodistribution in S180 tumor-bearing mouse liver at 8 to 10 uCi, iv after 5 mins by gamma counting; format: ADME, organism-based; details: in vivo
Blood [45] = assay: Biodistribution in S180 tumor-bearing mouse blood at 8 to 10 uCi, iv after 120 mins by gamma counting; format: ADME, organism-based; details: in vivo, 2 h
Nucleic Acid [46] = assay: Ratio of drug level in tumor to brain in S180 tumor-bearing mouse at 8 to 10 uCi, iv at 60 mins by gamma counting; format: ADME, organism-based; details: in vivo, 1 h
Kidney [47] = assay: Biodistribution in S180 tumor-bearing mouse kidney at 8 to 10 uCi, iv after 60 mins by gamma counting; format: ADME, organism-based; details: in vivo, 1 h
Nucleic Acid [48] = assay: Ratio of drug level in tumor to muscle in S180 tumor-bearing mouse at 8 to 10 uCi, iv at 120 mins by gamma counting; format: ADME, organism-based; details: in vivo, 2 h
Muscle tissue [49] = assay: Biodistribution in S180 tumor-bearing mouse muscle at 8 to 10 uCi, iv after 60 mins by gamma counting; format: ADME, organism-based; details: in vivo, 1 h
Stomach [50] = assay: Biodistribution in S180 tumor-bearing mouse stomach at 8 to 10 uCi, iv after 120 mins by gamma counting; format: ADME, organism-based; details: in vivo, 2 h
Liver [51] = assay: Biodistribution in S180 tumor-bearing mouse liver at 8 to 10 uCi, iv after 60 mins by gamma counting; format: ADME, organism-based; details: in vivo, 1 h
Spleen [52] = assay: Biodistribution in S180 tumor-bearing mouse spleen at 8 to 10 uCi, iv after 120 mins by gamma counting; format: ADME, organism-based; details: in vivo, 2 h
Mus musculus [53] = assay: Biodistribution in S180 cells xenografted in mouse tumor at 8 to 10 uCi, iv after 120 mins by gamma counting; format: ADME, organism-based, Neoplasm, CCRF S-180; details: in vivo, 2 h
Lung [54] = assay: Biodistribution in S180 tumor-bearing mouse lung at 8 to 10 uCi, iv after 60 mins by gamma counting; format: ADME, organism-based; details: in vivo, 1 h
Brain [55] = assay: Biodistribution in S180 tumor-bearing mouse brain at 8 to 10 uCi, iv after 60 mins by gamma counting; format: ADME, organism-based; details: in vivo, 1 h
Mus musculus [56] = assay: Biodistribution in S180 cells xenografted in mouse tumor at 8 to 10 uCi, iv after 5 mins by gamma counting; format: ADME, organism-based, Neoplasm, CCRF S-180; details: in vivo

Structure (SMILES): C#Cc1cccc(Nc2ncnc3cc(OC)c(OCC[18F])cc23)c1
- Stability [1]: Stable
- Drug uptake (Blood [2]): 1.19 % ID/g
- Ratio (Nucleic Acid [3]): 1.89
- Ratio (Nucleic Acid [4]): 1.91
- Drug uptake (Kidney [5]): 4.16 % ID/g
- Drug uptake (Blood [6]): 7.56 % ID/g
- Drug uptake (Stomach [7]): 4.14 % ID/g
- Drug uptake (Muscle tissue [8]): 1.36 % ID/g
- Ratio (Nucleic Acid [9]): 1.28
- Ratio (Nucleic Acid [10]): 2.35
- Drug uptake (Stomach [11]): 5.94 % ID/g
- Ratio (Nucleic Acid [12]): 2.5
- Ratio (Nucleic Acid [13]): 0.25
- Drug uptake (Mus musculus [14]): 3.32 % ID/g
- Ratio (Nucleic Acid [15]): 1.08
- Drug uptake (Blood [16]): 3.06 % ID/g
- Drug uptake (Spleen [17]): 1.93 % ID/g
- Ratio (Nucleic Acid [18]): 3.63
- Stability [19]: Stable
- Drug uptake (Liver [20]): 7.63 % ID/g
- Drug uptake (Mus musculus [21]): 2.98 % ID/g
- CL (Blood [22]): 90%
- Drug uptake (Spleen [23]): 0.98 % ID/g
- Drug uptake (Heart [24]): 1.99 % ID/g
- Stability (Plasma): Stable
- Drug uptake (Muscle tissue [25]): 1.74 % ID/g
- Drug uptake (Kidney [26]): 1.27 % ID/g
- Drug uptake (Brain [27]): 5.51 % ID/g
- Drug uptake (Liver [28]): 3.4 % ID/g
- Ratio (Nucleic Acid [29]): 0.19
- Drug uptake (Heart [30]): 8.68 % ID/g
- Drug uptake (Heart [31]): 2.85 % ID/g
- Drug uptake (Brain [32]): 2.59 % ID/g
- Drug uptake (Muscle tissue [33]): 0.74 % ID/g
- Drug uptake (Lung [34]): 3.6 % ID/g
- Drug uptake (Heart [35]): 1.03 % ID/g
- Drug uptake (Brain [36]): 1.5 % ID/g
- Drug uptake (Stomach [37]): 8.56 % ID/g
- Drug uptake (Kidney [38]): 6.35 % ID/g
- Drug uptake (Spleen [39]): 0.77 % ID/g
- Ratio (Nucleic Acid [40]): 1.21
- logP [41]: 1.64
- Drug uptake (Lung [42]): 2.99 % ID/g
- Drug uptake (Lung [43]): 1.62 % ID/g
- Drug uptake (Liver [44]): 8.75 % ID/g
- Drug uptake (Blood [45]): 0.77 % ID/g
- Ratio (Nucleic Acid [46]): 9.93
- Drug uptake (Kidney [47]): 2.53 % ID/g
- Ratio (Nucleic Acid [48]): 1.33
- Drug uptake (Muscle tissue [49]): 0.82 % ID/g
- Drug uptake (Stomach [50]): 1.07 % ID/g
- Drug uptake (Liver [51]): 4.07 % ID/g
- Drug uptake (Spleen [52]): 1.04 % ID/g
- Drug uptake (Mus musculus [53]): 1.81 % ID/g
- Drug uptake (Lung [54]): 1.88 % ID/g
- Drug uptake (Brain [55]): 0.3 % ID/g
- Drug uptake (Mus musculus [56]): 1.4 % ID/g
